Assay results: US7884244B2, “Therapeutic fluoroethylcyano guanidines” (Allergan, Inc., priority 2007, dated 2011)
pEC50: −log10 of the molar value.

Experiments:
Assay type in all cases: cell-based
alpha2A receptor = target: T1, alpha2A receptor (Homo sapiens, UniProt P08913); test: Receptor Selection and Amplification Technology (RSAT) assay, alpha2A
T1 construct: expressed in transfected cells; host or cells: NIH-3T3 cells
T1 sequence (P08913 1-465): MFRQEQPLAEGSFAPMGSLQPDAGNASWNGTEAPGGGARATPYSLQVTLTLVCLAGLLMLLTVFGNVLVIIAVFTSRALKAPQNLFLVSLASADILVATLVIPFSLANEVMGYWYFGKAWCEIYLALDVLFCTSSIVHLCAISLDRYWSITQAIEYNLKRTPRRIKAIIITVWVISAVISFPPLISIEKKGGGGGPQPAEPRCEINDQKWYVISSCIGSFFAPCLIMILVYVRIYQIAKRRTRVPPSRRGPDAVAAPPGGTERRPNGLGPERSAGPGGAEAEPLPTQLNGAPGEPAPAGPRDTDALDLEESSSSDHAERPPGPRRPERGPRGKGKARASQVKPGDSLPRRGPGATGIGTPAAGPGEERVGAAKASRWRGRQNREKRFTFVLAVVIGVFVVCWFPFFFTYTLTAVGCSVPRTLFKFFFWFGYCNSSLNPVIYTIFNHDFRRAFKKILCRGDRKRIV
Procedure: (§1) The RSAT assay measures a receptor-mediated loss of contact inhibition that results in selective proliferation of receptor-containing cells in a mixed population of confluent cells. The increase in cell number is assessed with an appropriate transfected marker gene such as […]-galactosidase, the activity of which can be easily measured in a 96-well format. Receptors that activate the G protein, Gq, elicit this response. Alpha2 receptors, which normally couple to Gi, activate the RSAT response when coexpressed with a hybrid Gq protein that has a Gi receptor recognition domain, called Gq/i5.
(§2) NIH-3T3 cells are plated at a density of 2×10^6 cells in 15 cm dishes and maintained in Dulbecco's modified Eagle's medium supplemented with 10% calf serum. One day later, cells are cotransfected by calcium phosphate precipitation with mammalian expression plasmids encoding p-SV-[…]-galactosidase (5-10 μg), receptor (1-2 μg) and G protein (1-2 μg). 40 μg salmon sperm DNA may also be included in the transfection mixture. Fresh media is added on the following day and 1-2 days later, cells are harvested and frozen in 50 assay aliquots. Cells are thawed and 100 μl added to 100 μl aliquots of various concentrations of drugs in triplicate in 96-well dishes. Incubations continue 72-96 hr at 37° C. After washing with phosphate-buffered saline, […]-galactosidase enzyme activity is determined by adding 200 μl of the chromogenic substrate (consisting of 3.5 mM o-nitrophenyl-[…]-D-galactopyranoside and 0.5% nonidet P-40 in phosphate buffered saline), incubating overnight at 30° C. and measuring optical density at 420 nm. The absorbance is a measure of enzyme activity, which depends on cell number and reflects a receptor-mediated cell proliferation. The efficacy or intrinsic activity is calculated as a ratio of the maximal effect of the drug to the maximal effect of a standard full agonist for each receptor subtype. Brimonidine, also called UK14304, the chemical structure of which is shown below, is used as the standard agonist for the alpha2A, alpha2B and alpha2C receptors. The EC50 is the concentration at which the drug effect is half of its maximal effect.
(§3) The results of the RSAT assay with several exemplary compounds of the invention are disclosed in Table 1 above together with the chemical formulas of these exemplary compounds. EC50 values are nanomolar. NA stands for “not active” at concentrations less than 10 micromolar. IA stands for “intrinsic activity.”

alpha2C receptor = target: T2, alpha2C receptor (Homo sapiens, UniProt P18825); test: Receptor Selection and Amplification Technology (RSAT) assay, alpha2C; conditions: for pEC50 / Alpha 2C EC50: RSAT, transfected NIH-3T3 cells with Gq/i5, not active = not active at concentrations less than 10 micromolar; for pEC50: read-out: Alpha 2C EC50; for Alpha 2C IA (intrinsic activity): ratio of maximal effect of drug to maximal effect of standard full agonist brimonidine (UK14304)
T2 construct: expressed in transfected cells; host or cells: NIH-3T3 cells
T2 sequence (P18825 1-462): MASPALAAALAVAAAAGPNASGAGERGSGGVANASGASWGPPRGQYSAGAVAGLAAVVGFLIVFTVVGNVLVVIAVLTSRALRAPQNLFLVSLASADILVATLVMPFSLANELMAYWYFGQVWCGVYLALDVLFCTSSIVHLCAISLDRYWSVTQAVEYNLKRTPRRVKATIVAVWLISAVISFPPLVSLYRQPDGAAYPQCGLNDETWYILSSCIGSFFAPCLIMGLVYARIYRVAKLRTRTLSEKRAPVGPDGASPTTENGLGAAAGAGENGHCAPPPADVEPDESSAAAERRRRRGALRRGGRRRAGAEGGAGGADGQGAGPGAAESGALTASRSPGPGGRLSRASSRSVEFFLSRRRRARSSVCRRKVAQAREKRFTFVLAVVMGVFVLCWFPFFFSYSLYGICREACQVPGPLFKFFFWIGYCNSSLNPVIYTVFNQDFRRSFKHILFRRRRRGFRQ
Procedure: as §1, §2, §3

alpha2B receptor = target: T3, alpha2B receptor (Homo sapiens, UniProt P18089); test: Receptor Selection and Amplification Technology (RSAT) assay, alpha2B; conditions: for pEC50: read-out: Alpha 2B EC50; for Alpha 2B IA (intrinsic activity): ratio of maximal effect of drug to maximal effect of standard full agonist brimonidine (UK14304)
T3 construct: expressed in transfected cells; host or cells: NIH-3T3 cells
T3 sequence (P18089 1-450): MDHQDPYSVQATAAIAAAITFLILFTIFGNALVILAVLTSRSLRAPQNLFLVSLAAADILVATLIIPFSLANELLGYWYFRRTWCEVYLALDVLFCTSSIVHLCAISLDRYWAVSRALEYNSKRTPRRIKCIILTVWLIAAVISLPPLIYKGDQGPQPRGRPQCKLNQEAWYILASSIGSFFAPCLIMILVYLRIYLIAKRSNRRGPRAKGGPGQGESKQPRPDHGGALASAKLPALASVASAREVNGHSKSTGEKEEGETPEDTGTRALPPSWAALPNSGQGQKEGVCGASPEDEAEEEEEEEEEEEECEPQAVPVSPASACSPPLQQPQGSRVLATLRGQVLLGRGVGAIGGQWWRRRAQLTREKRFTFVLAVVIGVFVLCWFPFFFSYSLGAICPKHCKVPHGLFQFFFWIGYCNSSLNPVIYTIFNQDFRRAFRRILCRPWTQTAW
Procedure: as §1, §2, §3

[1] = RSAT, transfected NIH-3T3 cells with Gq/i5, not active = not active at concentrations less than 10 micromolar

Row | Alpha 2A EC50 (alpha2A receptor; [1]) | pEC50 (alpha2C receptor) | Alpha 2C IA (intrinsic activity) (alpha2C receptor) | pEC50 (alpha2B receptor; [1]) | Alpha 2B IA (intrinsic activity) (alpha2B receptor) | Alpha 2C EC50 (alpha2C receptor) | Alpha 2B EC50 (alpha2B receptor; [1]) | pEC50 (alpha2A receptor; RSAT, transfected NIH-3T3 cells with Gq/i5, not active = not active at concentrations less than 10 micromolar, read-out: Alpha 2A EC50) | Alpha 2A IA (intrinsic activity) (alpha2A receptor; ratio of maximal effect of drug to maximal effect of standard full agonist brimonidine (UK14304)) | SMILES
1 | not active | 5.58 | 0.32 | 5.84 | 0.82 | – | – | – | – | N#C/N=C(/NCCF)NCc1cccc(Br)c1
2 | not active | – | – | 6.11 | 0.35 | not active | – | – | – | N#C/N=C(/NCCF)NC1Cc2ccccc2C1
3 | not active | 6.45 | 0.58 | 6.47 | 0.87 | – | – | – | – | N#C/N=C(/NCCF)NCc1cccc2c1OCC2
4 | not active | 6.04 | 0.51 | 7.13 | 0.95 | – | – | – | – | Cc1cccc2c1CCC2N/C(=N\C#N)NCCF (centres unmarked)
5 | not active | 5.75 | 0.33 | 6.38 | 0.47 | – | – | – | – | N#C/N=C(/NCCF)NC1CCc2ccccc21 (centres unmarked)
6 | not active | – | – | 5.59 | 0.74 | not active | – | – | – | N#C/N=C(/NCCF)NC1CCc2c(Br)cccc21 (centres unmarked)
7 | not active | – | – | 6.75 | 0.92 | not active | – | – | – | N#C/N=C(/NCCF)N[C@H]1CCc2ccccc21
8 | not active | – | – | 6.01 | 0.3 | not active | – | – | – | N#C/N=C(/NCCF)NC1CCc2c(Cl)cccc21 (centres unmarked)
9 | not active | – | – | 6.55 | 0.36 | not active | – | – | – | N#C/N=C(/NCCF)NC1CCc2c(F)cccc21 (centres unmarked)
10 | not active | 6.33 | 0.84 | 7.10 | 0.93 | – | – | – | – | Cc1cccc(CN/C(=N/C#N)NCCF)c1Cl
11 | not active | 6.42 | 0.4 | 6.78 | 0.42 | – | – | – | – | N#C/N=C(\NCCF)NC1CCc2ccc(F)cc21 (centres unmarked)
12 | not active | 6.02 | 0.36 | 6.63 | 0.31 | – | – | – | – | N#C/N=C(\NCCF)NC1CCc2ccc(Cl)cc21 (centres unmarked)
13 | not active | – | – | 6.29 | 0.34 | not active | – | – | – | Cc1ccc2c(c1)C(N/C(=N\C#N)NCCF)CC2 (centres unmarked)
14 | not active | 5.83 | 0.41 | 7.03 | 1.06 | – | – | – | – | Cc1cccc2c1CCCC2N/C(=N\C#N)NCCF (centres unmarked)
15 | not active | – | – | 6.53 | 0.37 | not active | – | – | – | N#C/N=C(/NCCF)NC1CCCc2c(Cl)cccc21 (centres unmarked)
16 | not active | – | – | – | 0.35 | not active | high | – | – | CCc1cccc2c1CCCC2N/C(=N\C#N)NCCF (centres unmarked)
17 | not active | 5.71 | 0.42 | 6.64 | 0.69 | – | – | – | – | N#C/N=C(/NCCF)NC1CCCc2c(F)cccc21 (centres unmarked)
18 | not active | – | – | 5.98 | 0.59 | not active | – | – | – | CCc1cccc2c1CCC2N/C(=N\C#N)NCCF (centres unmarked)
19 | not active | – | – | 6.03 | 0.85 | not active | – | – | – | N#C/N=C(/NCCF)NC1CCc2cccc(Br)c21 (centres unmarked)
20 | not active | – | – | 6.32 | 0.65 | not active | – | – | – | N#C/N=C(\NCCF)NC1CCc2cccc(F)c21 (centres unmarked)
21 | not active | – | – | 6.19 | 0.7 | not active | – | – | – | N#C/N=C(\NCCF)NC1CCc2cccc(Cl)c21 (centres unmarked)
22 | – | 5.82 | 0.46 | 7.22 | 1.09 | – | – | 6.12 | 0.35 | Cc1cccc2c1CC[C@@H]2N/C(=N\C#N)NCCF
23 | not active | – | – | 6.25 | 0.5 | not active | – | – | – | N#C/N=C(\NCCF)NC1CCc2ccc(F)c(F)c21 (centres unmarked)
24 | not active | – | – | 7.01 | 0.73 | not active | – | – | – | N#C/N=C(\NCCF)NC(Cc1ccccc1)c1ccccc1 (centres unmarked)
